Laboratory results: patent US9456589B2, “Elasmobranch-repelling compounds and methods of use” (priority 2005, dated 2016)
Values joined by “and” are separate entries in the source; they are usually repeats but may differ in a detail not shown here. Equal values may be shown once.

Key:
nurse sharks = test: Tonic immobility, Bite Assay; format: in vivo, C. cirratum
Method: One bioassay used to observe and measure flight response is the tonic immobility test. Tonic immobility is a state of paralysis that typically occurs when a shark is subject to inversion of its body along the longitudinal axis. This state is called “tonic,” and the shark can remain in this state for up to 15 minutes thereby allowing researchers to observe effects of chemical repellents. The “tonic” state of the shark is first established by releasing seawater in proximity to the “tonic” shark with the same delivery instrument and at the same distance as a “test” repellent compound will be released. Some controls are released with a high flow rate (30 mL/sec) in order to establish that sharks are not awakened by a jet of fluid over their noses. Once behavioral controls are established, a compound or composition that may have a repelling effect is delivered to the shark. […] Using this tonic immobility bioassay researches can quantify the strength of a repellent effect. […]
In Bite Assays, a dose of typically less than 5 mL of 3-methylbutanal was presented directly into the shark's mouth using a pipette. […] Because the delivery was directly into the shark's mouth and responses were generally observed immediately upon delivery, time to response was not recorded.

[1] = tested on: sharks (lemon, nurse, blacktip, tiger, blacknose pooled); test: Tonic immobility, Syringe 3/5/10 Assay, summary over species; format: in vivo
Method: (§1) One bioassay used to observe and measure flight response is the tonic immobility test. Tonic immobility is a state of paralysis that typically occurs when a shark is subject to inversion of its body along the longitudinal axis. This state is called “tonic,” and the shark can remain in this state for up to 15 minutes thereby allowing researchers to observe effects of chemical repellents. The “tonic” state of the shark is first established by releasing seawater in proximity to the “tonic” shark with the same delivery instrument and at the same distance as a “test” repellent compound will be released. Some controls are released with a high flow rate (30 mL/sec) in order to establish that sharks are not awakened by a jet of fluid over their noses. Once behavioral controls are established, a compound or composition that may have a repelling effect is delivered to the shark. If the compound or composition engenders a flight response, the shark will awaken from the tonic state and rapidly attempt to flee the delivered repellent. Using this tonic immobility bioassay researches can quantify the strength of a repellent effect.
In the tonic immobility studies disclosed herein, several different methods were employed for delivery of repelling compounds. A first method for delivery of chemical repellent in tonic immobility studies employed a “Syringe 3/5/10 Assay” method. The “Syringe 3/5/10 Assay” method is so named because a test repellent is delivered to a shark from a distance of about “3” inches with a bolus of about “5” mL with a response to the test repellent considered positive if the shark reacts with a change in behavior within less than about “10” seconds from the time of delivery.
The “3/5/10 Syringe Assay” as employed herein delivered a dose of 5-6 mL of a test chemical repellent from a syringe fixed with a needle having a gauge of about 22 from a distance at least 3 inches in front of a shark. Because the test chemical repellent was delivered at a distance from the shark's nares and mouth, a cloud of test chemical repellent was dispersed over the shark within the water column. The dispersed test repellent was subject to water current direction, dispersion and dilution. As a result, a flight response within 10 seconds was considered a positive repellency response. […] Time from delivery to response is related to the size of the bolus delivered from the syringe, distance of the shark from the syringe and water current.
In Syringe 3/5/10 Assays, 5-6 mL of 3-methylbutanal was delivered at least 3 inches in front of the shark's mouth. A cloud of the repellent dispersed over the shark within the water column. […] As noted above, because the dispersion of the chemical repellent upon delivery is affected by volume of repellent, water current, and other factors, the time between delivery and response was not correlatable with the potency of the repellent.

[2] = tested on: juvenile lemon and nurse sharks; test: Tonic immobility, Micropipette Assay, summary over species; format: in vivo; settings: juvenile lemon and nurse sharks
Method: as §1
A fourth method of delivery was called the “Micropipette Assay” method of delivery. In this method, a very small dose (fraction of a mL) of a test substance was delivered directly into a shark's mouth. […] A response, such as a cough or other notable action of the shark, was usually noted when effective gustatory repellents were delivered directly into a shark's mouth while in tonic immobility.
The Micropipette Assay method has not proven to be a particularly effective method of assaying for a flight response in elasmobranchs. The Micropipette Assay method is, nevertheless, an excellent method for specifying that a gustatory response has occurred. It is effective for specifying a gustatory response because the micropipette delivery method allows direct delivery of an entire bolus of test substance into the mouth of the shark being tested.
An oral dose of no more than 400 microliters was then delivered by micropipette into the mouth of a juvenile nurse shark. Tonic immobility was terminated. For each derivative of butyric acid and each naturally occurring acid listed in Table 9, a first micropipette assay was performed on a juvenile lemon shark with no more than 100 microliters of test acid in an oral dose. A second micropipette assay was then performed on a juvenile nurse shark with no more than 400 microliters of test acid in an oral dose. In each test, tonic immobility was terminated.
In a first set of studies on the effectiveness of carboxylic acids as elasmobranch repellents, each tested substance was subjected to the following protocol. […] An oral dose of no more than 400 microliters was then delivered by micropipette into the mouth of a juvenile nurse shark. Tonic immobility was terminated. […] The data evidences the gustatory repelling activity of carboxylic acids.

sharks (species pooled) = test: Tonic immobility, total of delivery methods not including Micropipette assays; format: in vivo
Method: as §1
Table 1, which summarizes the data in Tables 14 and 15, evidences the gustatory repellent characteristics of methylbutanals. In 35 of 36 assays (combining columns “Y” and “R” under the column labeled “Total (Not including Micropipette Assays)” to arrive at a 97% effectiveness rate), including assays on lemon, nurse, tiger and blacktip sharks, the gustatory repellent activity of 3-methylbutanal was established. In 81% of assays, tonic immobility was fully terminated. […] In only a single assay did a shark not respond to treatment with 3-methylbutanal.

[3] = species and delivery methods pooled

CC(C)CC=O [3-methylbutanal]
Bite Y (termination of tonic immobility), trials of trials (nurse sharks): each resulting in termination of tonic immobility and 2/2 | Syringe 3/5/10 Y (termination of tonic immobility), trials of trials [1]: 7/7 | Syringe 3/5/10 Y, percent of trials [1]: 100% | Micropipette assays with a behavioral response within tonic immobility [2]: ten | Micropipette assays with a gustatory response (termination or behavior change) [2]: 16 of 20 and fifteen | Micropipette assays with no response [2]: five | Micropipette Y (termination of tonic immobility), trials of trials ([2]; oral dose): five | assays with termination of tonic immobility or behavior change (Y and R combined), not including Micropipette assays (sharks (species pooled); Hd Syringe, Syringe 3/5/10 and Bite, lemon, nurse, tiger, blacktip): 40 of 41 and 35 of 36 | effectiveness rate (Y and R combined), not including Micropipette assays (sharks (species pooled); lemon, nurse, tiger, blacktip): 97% | Total (Not including Micropipette assays / Effective Delivery Methods) N, trials of trials (sharks (species pooled); [3]): single and 1/36 | Total (Not including Micropipette assays / Effective Delivery Methods) R, trials of trials (sharks (species pooled); [3]): 6/36 | Total (Not including Micropipette assays / Effective Delivery Methods) Y, trials of trials (sharks (species pooled); [3]): 29/36 | Total N, percent of trials (sharks (species pooled); [3]): (3%)
